This note sets out measurements from US20080118980A1, “Estrogen Enhancing Differentiation of Human Mesenchymal Stromal Cells and Adipose-derived Stromal Cells” (The Board of Trustees of the University of Illinois,, priority 2006, published 2008).

One experiment concerns human ASCs. Nature of the experiment: Osteogenic differentiation of ASCs modulated by E2 (Example 2). It counts as cell-based. Here is the method:
Because estrogen receptors (ERs) exist in adipose tissues (Dieudonne et al. (2004) Am J Physiol Cell Physiol. 286:C655-661), it is hypothesized that estrogen can also modulate the differentiation potentials of ASCs. All the experiments using human ASCs were performed under an approved IRB protocol of the University of Illinois at Chicago. Human abdomen subcutaneous adipose tissue was obtained from a healthy person with lipo-aspirated surgery. ASCs were isolated from adipose tissue according to previous studies (Hong et al. (2006) Cells Tissues Organs. 183 (3):133-40). Briefly, adipose tissue was finely minced and then digested with 0.075 wt % collagenase type I (Sigma, St Louis, Mo.) at 37° C. for 45 min with intermittent shaking. The cells were collected by filtration with a cell strainer with pore size of 100 μm diameter (Fisher Scientific, Barrington, Ill.). The harvested cells were cultured in a Dulbecco's Modified Eagle's Medium (DMEM), 15% fetal bovine serum (FBS) and 1% antibiotic-antimycotic at 10^6 cells/100 mm dish. Upon reaching 80-90% confluence, the isolated cells were trypsinized, counted, and subcultured at a density of 10^5 cells/100 mm dish as passage-1. The cells used for study are passage-3.
The basic medium supplemented with 100 nM dexamethasone, 10 mM β-glycerophosphate, and 0.05 mM ascorbic acid-2-phosphate was used to differentiate ASCs into an osteogenic cell lineage. Human ASCs were seeded at a cell density of 10^4 cells/cm^2 on 12-well plates and 100 mm petri dishes. Upon reaching 70% confluence, counting as day-0, the cells were exposed to osteogenic differentiation medium supplemented with different concentrations of E2 (from 10^−8 to 10^−11 M). On day 7, the cells cultured on petri dishes were collected for assessment of gene expressions of osteogenic specific markers and estrogen receptors (ERs) by reverse transcriptase polymerase chain reaction (RT-PCR) analysis. On day 14, the cells cultured in 12-well plates were analyzed for DNA, extracellular matrix, alkaline phosphatase (ALP) activity and calcium content.
On the defined day, cells cultured in 12-well plates were washed twice with phosphate buffered solution (PBS), suspended and lysed in 1% Triton-X100 solution (Sigma, St. Louis, Mo.). The collected cells were subsequently homogenized using sonication (Dismembrator Model 100, Fisher Scientific, Barrington, Ill.). The DNA content in the cells was determined by a fluorometric assay using a spectrofluorometer and DNA quantification kit (Hoechst 33258, Bio-Rad, Hercules, Calif.). The total protein concentrations of lysates were measured by a simple colorimetric assay based on the Bradford dye-binding procedure (Bio-Rad, Hercules, Calif.). The amount of protein was normalized by the unit of DNA.
ALP activity was assessed qualitatively by ALP staining. The cultured cells were fixed in 10% paraformaldehyde and incubated with 120 mM Tris buffer, pH 8.4, containing 0.9 mM Naphtol AS-MX Phosphate (Sigma, St. Louis, Mo.) and 1.8 mM Fast Red TR. After 45 min at room temperature, the cultures were washed with deionized water. Mineral deposition in the extracellular matrix was presented by von Kossa staining. The fixed cells were incubated in 2.5% (w/v) silver nitrate (Sigma, St. Louis, Mo.) solution for 30 min in sunlight. In order to quantify ALP activity and calcium content, cultured cells were washed twice with PBS, suspended and lysed in 0.5 ml of 1% Triton-X100 solution. ALP and calcium content were measured by spectrophotometry with a colorimetric kit according to the manufacturer's instructions (Raichem, San Diego, Calif.).
Total RNA was extracted from the various differentiated cells using TRizol reagent (Invitrogen, Carlsbad, Calif.). Approximately 5 μg of total RNA was converted to single stranded cDNA using a commercial cDNA synthesis kit (Invitrogen, Carlsbad, Calif.). […]

Another experiment relates to human bone marrow MSCs. The experiment can be described thus: Osteogenic differentiation of human bone marrow MSCs modulated by E2 (Example 1). It is filed as cell-based. From the text:
Human bone marrow MSCs were provided by the Center for Gene Therapy of Tulane University. The MSCs were isolated from bone marrow cells donated by a healthy adult volunteer. The passage-1 cells were recovered and expanded by culture in a basic medium composed of DMEM, 10% FBS and 1% antibiotic-antimycotic. Human ASCs were isolated from a healthy person with a lipo-aspirated surgery. The abdomen subcutaneous adipose tissue was finely minced and then digested with 0.075 wt % collagenase type I at 37° C. for 45 min. The cells were then collected by filtration with a cell strainer with pore size of 100 μm diameter. The ASCs were expanded in basic DMEM medium. Upon reaching 80-90% confluence of human MSCs and ASCs, the cells were trypsinized, counted, and subcultured at a density of 10^5 cells/100 mm dish. The cells used for study were passage-2. For osteogenic differentiation, the cells were seeded at a cell density of 10^4 cells/cm2 on 12-well plates and 100-mm petri dishes. Upon reaching 70% confluence, counting as day-0, the cells were exposed to osteogenic differentiation medium supplemented with either 10 nM or 10 pM E2. The osteogenic differentiation medium consisted of basic medium supplemented with 100 nM dexamethasone, 10 mM β-glycerophosphate, and 0.05 mM ascorbic acid-2-phosphate. At the defined time, the cells were collected and analyzed for osteogenic gene expression and differentiation potentials.
The cultured cells in 12-well plates were washed twice with PBS, suspended and lysed in 1% Triton-X100 solution. The collected cells were subsequently homogenized using sonication. The DNA content was determined by a fluorometric assay (Bio-Rad). ALP and calcium content were measured by spectrophotometry with a calorimetric kit according to the manufacturers' instructions (Sigma).
RNA was extracted from differentiated cells using TRizol reagent (Invitrogen). 5 μg of total RNA was converted to single stranded cDNA using a commercial cDNA synthesis kit. Aliquots of the cDNA were amplified with Ampli-Taq DNA polymerase for ALP, osteocalcin (OCN), core binding factor alpha1 (cbfa1), peroxisome proliferator activated receptors gamma (PPARγ)-2, estrogen receptors (ER) alpha (α) and beta (β), and housekeeping gene GAPDH. 40 cycles were used, each consisting of 45 sec of denaturation at 95° C., 45 sec of annealing at 58° C., and 1 min of polymerization at 72° C.

Take `C[C@]12CC[C@@H]3c4ccc(O)cc4CC[C@H]3[C@@H]1CC[C@@H]2O` [E2, 17-β estradiol]: the “OCN expression (RT-PCR)” value in the experiment on human ASCs (7 days, estrogen supplement 10^−8 M) is reported as “only expressed”; with human bone marrow MSCs (day 7, E2 10 nM) it was “only densely expressed”. Besides, the “ERβ expression (RT-PCR)” value in the experiment on human ASCs (7 days, estrogen supplement 10^−11 M) was “light bands”. Also, in the experiment on human ASCs (7 days, vs cells grown in the absence of estrogen, FIG. 4), the “ALP and cbfa-1 expression (RT-PCR bands)” value was “intense bands”. Also, in the experiment with human ASCs (ASCs, osteogenic medium supplemented with E2), the “staining for ALP and von Kossa” value is listed as “Intense staining”. The ALP activities entry with human ASCs (E2 10^−9 and 10^−8 M, after 14 days, FIG. 5B) is reported as “significantly improved”; in the experiment on human bone marrow MSCs (after 14 days, FIG. 2B), “little statistical significance”. Besides, in the experiment with human ASCs (day 14, FIG. 5A), the “proliferation during osteogenesis (DNA content)” value is given as “does not increase proliferation”. In addition, the “calcium content (mineralization of the extracellular matrix)” value in the experiment on human ASCs (day 14, most notably at 10^−8 M, FIG. 5D) is “significantly increased”. For the same molecule, the “protein content (extracellular matrix synthesis)” value with human ASCs (day 14, normalized by DNA, FIG. 5C) is reported as “increased”. The calcium content result in the experiment with human bone marrow MSCs (FIG. 2C) is listed as “significantly increased”. For the same molecule, the “cbfa-1 expression (RT-PCR band)” value in the experiment on human bone marrow MSCs (day 7, vs differentiation without estrogen supplement) was “denser band”. In addition, the “PPAR-γ2 expression (RT-PCR)” value in the experiment on human bone marrow MSCs (day 7, vs standard osteogenic medium) is given as “inhibited”. The “cell proliferation (amount of DNA) during osteogenesis” value with human bone marrow MSCs (higher dose of E2, FIG. 2A) is “does not affect”. In addition, the “ALP and von Kossa staining” value with human bone marrow MSCs (osteogenic differentiation medium supplemented with E2 (10 nM or 10 pM)) is given as “denser color”.
